Results published in US8680049B2 (Zealand Pharma A/S, priority 2008, dated 2014).

How the values were obtained:
[1] = molecular target: T1, human Glucagon-R (Homo sapiens, UniProt P47871); experiment: Glucagon receptor efficacy assay (cAMP, HEK293 cells); format: cell-based; conditions: read-out: GLUR EC50; further: crude peptides with purity of less than 90%
T1 construct: expressed in transfected cells
Method: (§1) The 5′-end primers additionally encoded a near Kozak consensus sequence to ensure efficient translation.
(§2) 48 hr after transfection cells were seeded for limited dilution cloning and selected with 1 mg/ml G418 in the culture medium.
(§3) On the day of analysis, growth medium was removed and the cells washed once with 200 μl Tyrode buffer. Cells were incubated in 100 μl Tyrode buffer containing increasing concentrations of test peptides, 100 μM IBMX, and 6 mM glucose for up 15 min at 37° C. The reaction was stopped by addition of 25 μl 0.5 M HCl and incubated on ice for 60 min. The cAMP content was estimated using the FlashPlate® cAMP kit from Perkin-Elmer.

[2] = molecular target: T2, human GLP-1-R (Homo sapiens, UniProt P43220); experiment: GLP-1 receptor efficacy assay (cAMP, HEK293 cells); format: cell-based; on EC50: crude peptides with purity of less than 90%
T2 construct: expressed in transfected cells
Method: as §1, §2, §3

[3] = test system: C57Bl/6 mice; experiment: Food intake in normal mice; format: in vivo; conditions: fasted mice, s.c.; PYY3-36 30 nmol/kg, glucagon 500 nmol/kg, ZP2663 500 nmol/kg
Method: One week before study C57Bl/6 mice (8 weeks) (N=9-12 animals in each group) were conditioned to treatment by daily injections (s.c.) of 0.2 ml vehicle and acclimatized to handling by weighing them twice a week. Mice were stratified one day before start of experiment into groups with similar body weight (BW). […] After one hour pre-weighed food was introduced to the mice and food intake measured by weighing the remaining food after one hour and expressed relative to body weight (mg food/g BW). Statistical analyses of food intake data by one-way ANOVA and Dunnetts post-hoc analyses were performed with GraphPad Prism version 4. Differences were considered significant at the 0.05 level.

[4] = test system: primary rat adipocytes; format: cell-based
Method: Adipocytes were isolated from epididymal fat dissected from normal young adult Sprague-Dawley rats. The fat lumps were minced, incubated and shaken (220 rpm) with collagenase (1 mg/ml) in Krebs-Ringer buffer containing 4% BSA (KRB-BSA) for 60 minutes at 37° C. The suspension was filtered through a nylon filter (160 μm pore size) and the filtrate centrifuged at 200×g for 3 min. The subjacent medium beneath the upper floating layer of adipocytes was removed with a Pasteur-pipette. The adipocytes were washed 3 times in KRB-BSA buffer by re-suspension and centrifugation. The adipocytes were re-suspended in KRB-BSA, mixed, incubated in and shaken with test compounds in 96-deep well plates (50,000 cells/well) in a total volume of 1 ml at 37° C. for 60 min. The plates were placed on ice for at least 10 min after incubation followed by centrifugation at 200×g for 3 min. 300 μl of the buffer beneath the adipocyte layer were collected in a 96-deep well plate. This process was repeated two more times and the 3 extracts collected from each culture pooled together.

[5] = test system: db/db mice; experiment: Oral glucose tolerance test (OGTT) in db/db mice; format: in vivo; conditions: i.p., 45 nmol/kg
Method: The animals were kept fasted during the experiment to prevent confounding food intake. Fifteen minutes later an oral dose of glucose (1 g/kg in 5 ml/kg) was given and BG levels were measured at t=30 min, t=60 min, t=120 min and t=240 min.
Difference from baseline (t=0) was calculated for each time point and AUC0-240 min values were determined. Statistical analyses of AUC values by one-way ANOVA and Dunnetts post-hoc analyses were performed with GraphPad Prism version 4. Differences were considered significant at the p<0.05 level.

[6] = test system: diet induced obese (DIO) mice; experiment: 28 day treatment of diet induced obese (DIO) mice: body weight and plasma cholesterols; format: in vivo
Method: Four weeks before drug treatments, C57Bl/6 male mice (7 weeks) (N=9-12 animals in each group) were put on high fat diet (HFD) and their day-night cycle reversed with lights On/Off at 2000/0800 hour. Experimental animals were conditioned to treatment by daily injections (s.c.) of 0.1 ml vehicle and acclimatized to handling by weighing them twice a week one week before start of drug administrations. […] Animals were fasted overnight before sacrifice. An eye blood sample (0.6 ml EDTA) was obtained the following morning immediately before cervical dislocation. Blood plasma samples were stored at −80° C. until analyzed for cholesterol, HDL and LDL using commercially available kits. Body weight gain throughout the treatment period was calculated for each animal by subtracting its weight at the initiation of treatment.
The effects of treatment on body weight gain and cholesterols were assessed by 2-way ANOVA with repeated measures and Bonferoni post-hoc analyses, using GraphPad Prism version 4. Differences were considered significant at the 0.05 level.

T2 sequence (P43220 24-463): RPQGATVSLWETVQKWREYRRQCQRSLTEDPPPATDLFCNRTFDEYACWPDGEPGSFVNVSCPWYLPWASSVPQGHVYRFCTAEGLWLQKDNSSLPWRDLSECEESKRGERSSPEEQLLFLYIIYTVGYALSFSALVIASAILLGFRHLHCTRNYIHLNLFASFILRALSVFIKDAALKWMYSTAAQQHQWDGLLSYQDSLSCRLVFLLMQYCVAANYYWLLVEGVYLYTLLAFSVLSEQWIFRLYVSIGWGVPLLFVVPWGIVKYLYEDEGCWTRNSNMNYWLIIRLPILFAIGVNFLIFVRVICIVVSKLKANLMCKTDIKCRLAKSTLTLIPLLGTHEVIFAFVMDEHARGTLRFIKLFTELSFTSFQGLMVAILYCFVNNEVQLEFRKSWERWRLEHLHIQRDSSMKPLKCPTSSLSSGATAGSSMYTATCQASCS
T1 sequence (P47871 26-477): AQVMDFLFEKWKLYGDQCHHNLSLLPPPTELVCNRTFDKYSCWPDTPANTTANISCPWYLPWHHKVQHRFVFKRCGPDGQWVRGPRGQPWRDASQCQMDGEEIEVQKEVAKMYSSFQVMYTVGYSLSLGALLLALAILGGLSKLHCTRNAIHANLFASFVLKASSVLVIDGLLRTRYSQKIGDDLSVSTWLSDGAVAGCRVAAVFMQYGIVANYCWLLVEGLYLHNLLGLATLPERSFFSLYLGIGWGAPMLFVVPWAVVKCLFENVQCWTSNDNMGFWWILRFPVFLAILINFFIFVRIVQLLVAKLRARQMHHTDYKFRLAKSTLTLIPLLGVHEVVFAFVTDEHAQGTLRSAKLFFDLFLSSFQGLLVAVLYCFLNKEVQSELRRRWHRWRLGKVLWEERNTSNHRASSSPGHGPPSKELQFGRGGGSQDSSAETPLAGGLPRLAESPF

Molecule | EC50 [1] [nM] | EC50 [2] [nM] | also measured
CC[C@H](C)[C@H](NC(=O)[C@H](Cc1ccccc1)NC(=O)[C@H](CC(=O)O)NC(=O)[C@H](CCC(N)=O)NC(=O)[C@H](C)NC(=O)[C@H](CCCNC(=N)N)NC(=O)[C@H](CCCNC(=N)N)NC(=O)[C@H](CO)NC(=O)[C@H](CC(=O)O)NC(=O)[C@H](CC(C)C)NC(=O)[C@H](Cc1ccc(O)cc1)NC(=O)[C@H](CCCCN)NC(=O)[C@H](CO)NC(=O)[C@H](Cc1ccc(O)cc1)NC(=O)[C@H](CC(=O)O)NC(=O)[C@H](CO)NC(=O)[C@@H](NC(=O)[C@H](Cc1ccccc1)NC(=O)[C@@H](NC(=O)CNC(=O)[C@H](CCC(N)=O)NC(=O)[C@H](CO)NC(=O)[C@@H](N)Cc1c[nH]cn1)[C@@H](C)O)[C@@H](C)O)C(=O)N[C@@H](CCC(=O)O)C(=O)N[C@@H](Cc1c[nH]c2ccccc12)C(=O)N[C@@H](CC(C)C)C(=O)N[C@@H](CC(C)C)C(=O)N[C@@H](CO)C(=O)N[C@@H](C)C(N)=O [Compound L006-0090] | 0.22 | 0.15 | 
CC[C@H](C)[C@H](NC(=O)[C@H](Cc1ccccc1)NC(=O)[C@H](CC(=O)O)NC(=O)[C@H](CCCCN)NC(=O)[C@H](C)NC(=O)[C@H](CCCNC(=N)N)NC(=O)[C@H](CCCNC(=N)N)NC(=O)[C@H](CCC(=O)O)NC(=O)[C@H](CC(=O)O)NC(=O)[C@H](CC(C)C)NC(=O)[C@H](Cc1ccc(O)cc1)NC(=O)[C@H](CCCCN)NC(=O)[C@H](CO)NC(=O)[C@H](Cc1ccc(O)cc1)NC(=O)[C@H](CC(=O)O)NC(=O)[C@H](CO)NC(=O)[C@@H](NC(=O)[C@H](Cc1ccccc1)NC(=O)[C@@H](NC(=O)CNC(=O)[C@H](CCC(N)=O)NC(=O)[C@H](CO)NC(=O)[C@@H](N)Cc1c[nH]cn1)[C@@H](C)O)[C@@H](C)O)C(=O)N[C@@H](CCC(=O)O)C(=O)N[C@@H](Cc1c[nH]c2ccccc12)C(=O)N[C@@H](CC(C)C)C(=O)N[C@@H](CC(C)C)C(=O)N[C@@H](CO)C(=O)N[C@@H](C)C(N)=O [ZP2663] |  |  | food intake during the first hour (in words) [3]: significantly decreased food intake; EC50 [4]: 4.4 nM; effect on lipolysis in primary adipocyte cultures (in words) [4]: equipotent with glucagon; improvement of glucose tolerance [5]: 64.9%; glucose tolerance during OGTT (in words) ([5]; AUC0-240 min): significantly improved glucose tolerance; body weight gain (in words) ([6]; 500 nmol/kg b.i.d. s.c., 28 days): decreased body weight gain to a level similar to that observed with chow feeding; blood concentration of LDL cholesterol vs vehicle (in words) ([6]; 4 weeks b.i.d.): statistically significantly different from the vehicle group; fat deposition (in words) ([6]; 4 weeks treatment): significantly decreased fat deposition
Exendin-4 |  |  | EC50, stimulation of lipolysis in primary rat adipocyte cultures ([4]; 60 min, glycerol formed): No effect; GLP-1R agonist activity (in words) [2]: very potent GLP-1R agonist
H-HSQGTFTSDYSKYLDDRRARDFIDWLLSA-NH2 [Compound L006-0093] | 0.1 | 0.07 | 
H-HSQGTFTSDYSKYLDERAAKDFIEWLLSA-NH2 [Compound L006-0108] | 0.81 | 0.53 | 
H-HSQGTFTSDYSKYLDERRAKDFIDWLLSA-NH2 [Compound L006-0129] | 0.24 | 0.2 | 
H-HSQGTFTSDYSKYLDERRAKDFIEWLLAA-NH2 [Compound L006-0136] | 0.33 | 0.22 | 
H-HSQGTFTSDYSKYLDERRAKDFIEWLLRA-NH2 [Compound L006-0138] | 0.38 | 0.29 | 
H-HSQGTFTSDYSKYLDERRAKDFIQWLLSA-NH2 [Compound L006-0084] | 0.13 | 0.07 | 
H-HSQGTFTSDYSKYLDERRAKDFIRWLLSA-NH2 [Compound L006-0128] | 0.22 | 0.16 | 
H-HSQGTFTSDYSKYLDERRAQDFIEWLLSA-NH2 [Compound L006-0082] |  | 0.09 | 
H-HSQGTFTSDYSKYLDKRRAEDFIKWLLSA-NH2 [Compound L006-0094] | 0.25 | 0.16 | 
H-HSQGTFTSDYSKYLDSRRAKDFIEWLLSA-NH2 [Compound L006-0081] | 0.23 | 0.14 | 
PYY(3-36): internal positive control for food intake (anorectic peptide) [reference compound] |  |  | food intake during the first hour (in words) [3]: anorectic effect
